Experiments:
Settings in all cases: JH1 kinase domain, ADP-Glo
[1] = molecular target: T1, human TYK2 kinase domain (JH1) (Homo sapiens, UniProt P29597); experiment: JH1 biochemical assay for TYK2 (ADP-Glo kinase assay, recombinant JH1 catalytic domain, JAK3-974 peptide, 10 μM ATP)
T1 construct: recombinantly generated catalytic kinase (also known as JH1) domain of human JAK1, JAK2, JAK3 and TYK2
T1 sequence (P29597 897-1176 limits assumed): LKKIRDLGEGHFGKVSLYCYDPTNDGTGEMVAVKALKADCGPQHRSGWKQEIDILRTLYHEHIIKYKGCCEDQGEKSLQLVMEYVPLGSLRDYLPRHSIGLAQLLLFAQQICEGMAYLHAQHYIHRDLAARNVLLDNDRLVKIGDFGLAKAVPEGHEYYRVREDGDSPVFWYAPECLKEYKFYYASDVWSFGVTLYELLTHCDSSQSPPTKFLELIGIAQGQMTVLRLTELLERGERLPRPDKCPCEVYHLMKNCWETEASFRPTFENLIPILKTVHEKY
Procedure: (§1) Compounds of the disclosure were assessed for their ability to inhibit TYK2, JAK1, JAK2, and JAK3 activity. The inhibitory properties of the compounds of the disclosure described herein can be evidenced by testing in any one of the following protocols.
(§2) The kinase activity of recombinantly generated catalytic kinase (also known as JH1) domain of human JAK1, JAK2, JAK3 and TYK2 were evaluated in a plate-based assay using the ADP-Glo™ Kinase Assay platform. Specifically, 4 nM of recombinant JAK1 kinase domain is used to phosphorylate 50 μM of a JAK3-342 (sequence ALVDGYFRLTT) peptide in the presence of 35 μM ATP. Catalytic activities of recombinant JAK2, JAK3 and TYK2 kinase domain (0.2, 0.3 and 2 nM, respectively) are evaluated by the phosphorylation status of the JAK3-974 (50 μM; sequence LPLDKDYYVVR) peptide with the addition of ATP (15, 4 and 10 μM, respectively). The reactions proceed for 100 minutes and the catalytic activity is quantified by first depleting the unused ATP, converting the hydrolyzed ADP into ATP to generate luminescence in a luciferase reaction; which is the basis of the ADP-Glo platform. Compounds are tested at either 10 μM or 1 μM top concentration, 11 points of 3-fold dilution. The data is normalized and the percent activity versus log concentration of compound is fitted with a 4-parameter logistic model to generate a curve and an IC50 value.

[2] = molecular target: T2, human JAK1 kinase domain (JH1) (Homo sapiens, UniProt P23458); experiment: JH1 biochemical assay for JAK1 (ADP-Glo kinase assay, recombinant JH1 catalytic domain, JAK3-342 peptide, 35 μM ATP)
T2 construct: recombinantly generated catalytic kinase (also known as JH1) domain of human JAK1, JAK2, JAK3 and TYK2
T2 sequence (P23458 875-1153 limits assumed): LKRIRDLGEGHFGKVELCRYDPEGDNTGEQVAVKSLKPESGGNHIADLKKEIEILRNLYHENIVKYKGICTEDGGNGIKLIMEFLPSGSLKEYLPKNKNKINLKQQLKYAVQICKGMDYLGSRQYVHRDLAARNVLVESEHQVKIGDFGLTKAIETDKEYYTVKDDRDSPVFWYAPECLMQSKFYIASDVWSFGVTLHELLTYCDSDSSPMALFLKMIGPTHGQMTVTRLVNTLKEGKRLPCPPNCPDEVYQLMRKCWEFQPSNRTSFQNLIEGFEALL
Procedure: as §1, §2

[3] = molecular target: T3, human JAK2 kinase domain (JH1) (Homo sapiens, UniProt O60674); experiment: JH1 biochemical assay for JAK2 (ADP-Glo kinase assay, recombinant JH1 catalytic domain, JAK3-974 peptide, 15 μM ATP)
T3 construct: recombinantly generated catalytic kinase (also known as JH1) domain of human JAK1, JAK2, JAK3 and TYK2
T3 sequence (O60674 849-1124 limits assumed): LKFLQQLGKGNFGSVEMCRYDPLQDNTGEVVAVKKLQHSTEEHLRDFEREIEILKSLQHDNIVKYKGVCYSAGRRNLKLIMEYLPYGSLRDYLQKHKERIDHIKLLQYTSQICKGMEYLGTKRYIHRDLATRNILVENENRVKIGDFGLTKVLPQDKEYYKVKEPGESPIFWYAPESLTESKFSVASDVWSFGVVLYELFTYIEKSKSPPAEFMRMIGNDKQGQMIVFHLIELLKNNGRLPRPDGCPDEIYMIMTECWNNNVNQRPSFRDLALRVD
Procedure: as §1, §2

[4] = molecular target: T4, human JAK3 kinase domain (JH1) (Homo sapiens, UniProt P52333); experiment: JH1 biochemical assay for JAK3 (ADP-Glo kinase assay, recombinant JH1 catalytic domain, JAK3-974 peptide, 4 μM ATP)
T4 construct: recombinantly generated catalytic kinase (also known as JH1) domain of human JAK1, JAK2, JAK3 and TYK2
T4 sequence (P52333 822-1111 limits assumed): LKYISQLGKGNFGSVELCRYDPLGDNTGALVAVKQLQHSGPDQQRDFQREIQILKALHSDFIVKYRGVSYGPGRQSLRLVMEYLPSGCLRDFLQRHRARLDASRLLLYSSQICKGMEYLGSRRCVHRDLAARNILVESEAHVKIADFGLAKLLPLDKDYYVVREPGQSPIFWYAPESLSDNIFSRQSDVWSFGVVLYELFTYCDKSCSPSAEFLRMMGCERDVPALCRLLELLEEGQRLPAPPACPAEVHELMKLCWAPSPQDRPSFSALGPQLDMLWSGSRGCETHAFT
Procedure: as §1, §2

IC50 [1] [µM] | IC50 [2] [µM] | IC50 [3] [µM] | IC50 [4] [µM] | SMILES
> 0.1 | 5 to 10 | 5 to 10 | > 10 | CC[C@H]1CN(c2ccnn3cc(-c4cnn(C)c4)cc23)C(=O)[C@]1(C#N)C1CC1 [Example 24, (3R,4R)-3-cyclopropyl-4-ethyl-1-(6-(1-methyl-1H-pyrazol-4-yl)pyrrolo[1,2-b]pyridazin-4-yl)-2-oxopyrrolidine-3-carbonitrile]
> 0.1 | > 10 | > 10 | > 10 | CC[C@H]1CN(c2ccnn3cc(-c4cnn(C)c4)cc23)C(=O)[C@@]1(C#N)C1CC1 [Example 25, (3S,4R)-3-cyclopropyl-4-ethyl-1-(6-(1-methyl-1H-pyrazol-4-yl)pyrrolo[1,2-b]pyridazin-4-yl)-2-oxopyrrolidine-3-carbonitrile]
> 0.1 | > 10 | > 10 | > 10 | CC[C@@H]1CN(c2ccnn3cc(-c4cnn(C)c4)cc23)C(=O)[C@@]1(C#N)C1CC1 [Example 26, (3S,4S)-3-cyclopropyl-4-ethyl-1-(6-(1-methyl-1H-pyrazol-4-yl)pyrrolo[1,2-b]pyridazin-4-yl)-2-oxopyrrolidine-3-carbonitrile]
> 0.1 | 1 to 5 | 1 to 5 | 1 to 5 | Cn1cc(-c2cc3c(N4CC[C@@](CC#N)(C5CC5)C4=O)ccnn3c2)cn1 [Example 27, (R)-2-(3-cyclopropyl-1-(6-(1-methyl-1H-pyrazol-4-yl)pyrrolo[1,2-b]pyridazin-4-yl)-2-oxopyrrolidin-3-yl)acetonitrile]
> 0.1 | > 10 | > 10 | > 10 | C[C@H]1CN(c2ccnn3cc(-c4cnn(C)c4)cc23)C(=O)[C@@]1(C#N)C1CC1 [Example 29, (3S,4R)-3-cyclopropyl-4-methyl-1-(6-(1-methyl-1H-pyrazol-4-yl)pyrrolo[1,2-b]pyridazin-4-yl)-2-oxopyrrolidine-3-carbonitrile]
> 0.1 | > 10 | > 10 | > 10 | C[C@H]1C[C@](C#N)(C2CC2)C(=O)N1c1ccnn2cc(-c3cnn(C)c3)cc12 [Example 30, (3R,5S)-3-cyclopropyl-5-methyl-1-(6-(1-methyl-1H-pyrazol-4-yl)pyrrolo[1,2-b]pyridazin-4-yl)-2-oxopyrrolidine-3-carbonitrile]
> 0.1 | > 10 | > 10 | > 10 | C[C@H]1C[C@@](C#N)(C2CC2)C(=O)N1c1ccnn2cc(-c3cnn(C)c3)cc12 [Example 31, (3S,5S)-3-cyclopropyl-5-methyl-1-(6-(1-methyl-1H-pyrazol-4-yl)pyrrolo[1,2-b]pyridazin-4-yl)-2-oxopyrrolidine-3-carbonitrile]
> 0.1 | > 10 | > 10 | > 10 | CC[C@H]1C[C@](C#N)(C2CC2)C(=O)N1c1ccnn2cc(-c3cnn(C)c3)cc12 [Example 32, (3R,5S)-3-cyclopropyl-5-ethyl-1-(6-(1-methyl-1H-pyrazol-4-yl)pyrrolo[1,2-b]pyridazin-4-yl)-2-oxopyrrolidine-3-carbonitrile]
> 0.1 | 5 to 10 | 1 to 5 | 5 to 10 | CC[C@@H]1C[C@](C#N)(C2CC2)C(=O)N1c1ccnn2cc(-c3cnn(C)c3)cc12 [Example 33, (3R,5R)-3-cyclopropyl-5-ethyl-1-(6-(1-methyl-1H-pyrazol-4-yl)pyrrolo[1,2-b]pyridazin-4-yl)-2-oxopyrrolidine-3-carbonitrile]
0.02 to 0.05 | 0.1 to 1 | 1 to 5 | 1 to 5 | C[C@@H]1CN(c2ccnn3cc(-c4ccnn4C)cc23)C(=O)[C@]1(C#N)C1CC1 [Example 49, (3R,4S)-3-cyclopropyl-4-methyl-1-(6-(1-methyl-1H-pyrazol-5-yl)pyrrolo[1,2-b]pyridazin-4-yl)-2-oxopyrrolidine-3-carbonitrile]

Reference: patent US20260297085A1, “1 H-PYRROLO[2,3-B]PYRIDIN-4-YL]-2-OXOPYRROLIDINE-3-CARBONITRILE DERIVATIVES AS TYROSINE KINASE 2 (TYK2) INHIBITORS FOR THE TREATMENT OF INFLAMMATORY DISEASES” (BIOGEN MA INC., priority 2023, published 2026)
